# How the values were obtained:
# MRSA (JCSC 3063) = assay: Antibacterial assay, broth macrodilution, MRSA; assay type: cell-based; conditions: Staphylococcus aureus
# Description: Antibacterial activity of all compounds against MRSA (JCSC 3063) and E. coli (ATCC 8739) was tested by the broth […] method on 96-well plates according to the CLSI recommendation ([Li et al., 2014]).
# normal cell line LX-2 = assay: MTT cytotoxicity assay, normal cell line LX-2; assay type: cell-based; conditions: 72 h
# Description: (§1) The cytotoxicity of all compounds against three human tumor cell lines, SF-268 (CNS cancer), MCF-7 (breast cancer), and HepG2 (hepatoma cancer), and normal cell line LX-2 was tested using the MTT assay. […] All cells were seeded into 96-well plates at 5 × 10^4 cells/ml and incubated at 37°C under a 5% CO2 atmosphere for 24 h. Then, the tested compounds were added. After 72 h, MTT solution was added into each well, which was further incubated. The cell-free supernatant was removed and formazan crystals were subsequently dissolved in DMSO. Optical density (OD) was recorded at 490 nm on a microplate reader to calculate the IC50 values.
# SF-268 (CNS cancer) = assay: MTT cytotoxicity assay, SF-268 cells; assay type: cell-based, human; conditions: Homo sapiens
# Description: (§2) The cytotoxicity of all compounds against three human tumor cell lines, SF-268 (CNS cancer), MCF-7 (breast cancer), and HepG2 (hepatoma cancer), and normal cell line LX-2 was tested using the MTT assay. Adriamycin was used as a positive control. All cells were seeded into 96-well plates at 5 × 10^4 cells/ml and incubated at 37°C under a 5% CO2 atmosphere for 24 h. Then, the tested compounds were added. After 72 h, MTT solution was added into each well, which was further incubated. The cell-free supernatant was removed and formazan crystals were subsequently dissolved in DMSO. Optical density (OD) was recorded at 490 nm on a microplate reader to calculate the IC50 values.
# MCF-7 (breast cancer) = assay: MTT cytotoxicity assay, MCF-7 cells; assay type: cell-based, human; conditions: Homo sapiens
# Description: as §1
# HepG2 (hepatoma cancer) = assay: MTT cytotoxicity assay, HepG2 cells; assay type: cell-based, human; conditions: Homo sapiens
# Description: as §2
smiles,measurement,setting,value
CN[C@H](CC(C)C)C(=O)N[C@H]1C(=O)N[C@@H](CC(N)=O)C(=O)N[C@H]2C(=O)N[C@H]3C(=O)N[C@H](C(=O)N[C@H](C(=O)O)c4cc(O)cc(O)c4-c4cc3ccc4O)[C@H](O)c3ccc(c(Cl)c3)Oc3cc2cc(c3O[C@@H]2O[C@H](CO)[C@@H](O)[C@H](O)[C@H]2O[C@H]2C[C@](C)(N)[C@H](O)[C@H](C)O2)Oc2ccc(cc2Cl)[C@H]1O [Vancomycin],MIC,MRSA (JCSC 3063),1.25 µg/mL
"CC1(O)CC2OC23C(C)(C)C(Cl)CCC3(C)C1C(=O)O (stereo not shown) [compound 6, altiloxin B]",inhibition at 1 µM,"normal cell line LX-2; LX-2, c 1.00 μM, three replicates",8.12%
same,inhibition at 2 µM,"normal cell line LX-2; LX-2, c 2.00 μM, three replicates",11.8%
same,inhibition at 4 µM,"normal cell line LX-2; LX-2, c 4.00 μM, three replicates",15.9%
same,inhibition at 8 µM,"normal cell line LX-2; LX-2, c 8.00 μM, three replicates",26.5%
same,inhibition at 16 µM,"normal cell line LX-2; LX-2, c 16.00 μM, three replicates",31.3%
same,inhibition at 32 µM,"normal cell line LX-2; LX-2, c 32.00 μM, three replicates",40.5%
same,inhibition at 64 µM,"normal cell line LX-2; LX-2, c 64.00 μM, three replicates",65%
same,inhibition at 128 µM,"normal cell line LX-2; LX-2, c 128.00 μM, three replicates",73.5%
same,IC50,"normal cell line LX-2; MTT, mean ± SD (n = 3)",> 40 µM
same,inhibition at 1 µM,"SF-268 (CNS cancer); SF-268, 72 h, SF268 cells, c 1.00 μM, triplicate values, read-out: cell inhibition",3.44%
same,inhibition at 2 µM,"SF-268 (CNS cancer); SF-268, 72 h, SF268 cells, c 2.00 μM, triplicate values, read-out: cell inhibition",5.06%
same,inhibition at 4 µM,"SF-268 (CNS cancer); SF-268, 72 h, SF268 cells, c 4.00 μM, triplicate values, read-out: cell inhibition",7.23%
same,inhibition at 8 µM,"SF-268 (CNS cancer); SF-268, 72 h, SF268 cells, c 8.00 μM, triplicate values, read-out: cell inhibition",9.25%
same,inhibition at 16 µM,"SF-268 (CNS cancer); SF-268, 72 h, SF268 cells, c 16.00 μM, triplicate values, read-out: cell inhibition",12.9%
same,inhibition at 32 µM,"SF-268 (CNS cancer); SF-268, 72 h, SF268 cells, c 32.00 μM, triplicate values, read-out: cell inhibition",22.6%
same,inhibition at 64 µM,"SF-268 (CNS cancer); SF-268, 72 h, SF268 cells, c 64.00 μM, triplicate values, read-out: cell inhibition",49.5%
same,inhibition at 128 µM,"SF-268 (CNS cancer); SF-268, 72 h, SF268 cells, c 128.00 μM, triplicate values, read-out: cell inhibition",60.3%
same,IC50,"SF-268 (CNS cancer); SF-268, MTT, 72 h, mean ± SD (n = 3), read-out: IC50 SF268",> 40 µM
same,inhibition at 1 µM,"MCF-7 (breast cancer); MCF7, 72 h, MCF-7, c 1.00 μM, three replicates, read-out: cell inhibition",1.37%
same,inhibition at 2 µM,"MCF-7 (breast cancer); MCF7, 72 h, MCF-7, c 2.00 μM, three replicates, read-out: cell inhibition",4.01%
same,inhibition at 4 µM,"MCF-7 (breast cancer); MCF7, 72 h, MCF-7, c 4.00 μM, three replicates, read-out: cell inhibition",8.56%
same,inhibition at 8 µM,"MCF-7 (breast cancer); MCF7, 72 h, MCF-7, c 8.00 μM, three replicates, read-out: cell inhibition",13%
same,inhibition at 16 µM,"MCF-7 (breast cancer); MCF7, 72 h, MCF-7, c 16.00 μM, three replicates, read-out: cell inhibition",18.9%
same,inhibition at 32 µM,"MCF-7 (breast cancer); MCF7, 72 h, MCF-7, c 32.00 μM, three replicates, read-out: cell inhibition",24.3%
same,inhibition at 64 µM,"MCF-7 (breast cancer); MCF7, 72 h, MCF-7, c 64.00 μM, three replicates, read-out: cell inhibition",59.3%
same,inhibition at 128 µM,"MCF-7 (breast cancer); MCF7, 72 h, MCF-7, c 128.00 μM, three replicates, read-out: cell inhibition",66.4%
same,IC50,"MCF-7 (breast cancer); MCF7, MTT, 72 h, mean ± SD (n = 3)",> 40 µM
same,inhibition at 1 µM,"HepG2 (hepatoma cancer); HepG2, 72 h, HepG2, c 1.00 μM, three replicates, read-out: cell inhibition",1.37%
same,inhibition at 2 µM,"HepG2 (hepatoma cancer); HepG2, 72 h, HepG2, c 2.00 μM, three replicates, read-out: cell inhibition",5.78%
same,inhibition at 4 µM,"HepG2 (hepatoma cancer); HepG2, 72 h, HepG2, c 4.00 μM, three replicates, read-out: cell inhibition",10.6%
same,inhibition at 8 µM,"HepG2 (hepatoma cancer); HepG2, 72 h, HepG2, c 8.00 μM, three replicates, read-out: cell inhibition",14.6%
same,inhibition at 16 µM,"HepG2 (hepatoma cancer); HepG2, 72 h, HepG2, c 16.00 μM, three replicates, read-out: cell inhibition",19.5%
same,inhibition at 32 µM,"HepG2 (hepatoma cancer); HepG2, 72 h, HepG2, c 32.00 μM, three replicates, read-out: cell inhibition",26.6%
same,inhibition at 64 µM,"HepG2 (hepatoma cancer); HepG2, 72 h, HepG2, c 64.00 μM, three replicates, read-out: cell inhibition",63.3%
same,inhibition at 128 µM,"HepG2 (hepatoma cancer); HepG2, 72 h, HepG2, c 128.00 μM, three replicates, read-out: cell inhibition",79.7%
same,IC50,"HepG2 (hepatoma cancer); HepG2, MTT, 72 h, mean ± SD (n = 3)",> 40 µM

# From paper PMC8640094, “Diaportones A–C: Three New Metabolites From Endophytic Fungus Diaporthe foeniculina BZM-15” (Frontiers in Chemistry, 2021)
